From the supplement of paper PMC10307832

Legend:
Assay in all cases: relative viability (nuclei count vs DMSO), 5 days (fraction); higher = more cells survive
IPA-3 + Decitabine = compound: C1=CC=C2C(=C1)C=CC(=C2SSC3=C(C=CC4=CC=CC=C43)O)O [IPA-3] + Nc1ncn([C@H]2C[C@H](O)[C@@H](CO)O2)c(=O)n1 [Decitabine] (partner 2 µM)
Procedure, shortened: (§1)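 Relative viability was taken as the ratio of nuclei in treated wells to nuclei in vehicle wells. Lung cancer cell lines in 1536-well plates received compounds by pin tool one day after seeding, either one drug alone or a fixed anchor-drug dose plus five library-drug doses (not always all listed) in √10 steps. Nuclei were counted on 4× images after 5 days of treatment, and values are medians of duplicate plates.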

RAF265 + Lapatinib = compound: Cn1c(Nc2ccc(C(F)(F)F)cc2)nc2cc(Oc3ccnc(-c4ncc(C(F)(F)F)[nH]4)c3)ccc21 [RAF265] + CS(=O)(=O)CCNCc1ccc(-c2ccc3ncnc(Nc4ccc(OCc5cccc(F)c5)c(Cl)c4)c3c2)o1 [Lapatinib] (partner 2 µM)
Procedure, shortened: as §1

IPA-3 + Phenformin = compound: C1=CC=C2C(=C1)C=CC(=C2SSC3=C(C=CC4=CC=CC=C43)O)O [IPA-3] + N=C(N)NC(=N)NCCc1ccccc1 [Phenformin] (partner 250 µM)
Procedure, shortened: as §1

Doramapimod + Alpelisib = compound: Cc1ccc(-n2nc(C(C)(C)C)cc2NC(=O)Nc2ccc(OCCN3CCOCC3)c3ccccc23)cc1 [Doramapimod] + Cc1nc(NC(=O)N2CCC[C@H]2C(N)=O)sc1-c1ccnc(C(C)(C)C(F)(F)F)c1 [Alpelisib] (partner 2 µM)
Procedure, shortened: as §1

Cell Line	relative viability (IPA-3 + Decitabine; first compound 0.2 µM)	relative viability (IPA-3 + Decitabine; first compound 0.6325 µM)	relative viability (IPA-3 + Decitabine; first compound 2 µM)	relative viability (IPA-3 + Decitabine; first compound 6.325 µM)	relative viability (IPA-3 + Decitabine; first compound 20 µM)	relative viability (RAF265 + Lapatinib; first compound 0.01 µM)	relative viability (RAF265 + Lapatinib; first compound 0.03162 µM)	relative viability (RAF265 + Lapatinib; first compound 0.1 µM)	relative viability (RAF265 + Lapatinib; first compound 0.3162 µM)	relative viability (RAF265 + Lapatinib; first compound 1 µM)	relative viability (IPA-3 + Phenformin; first compound 0.2 µM)	relative viability (IPA-3 + Phenformin; first compound 0.6325 µM)	relative viability (IPA-3 + Phenformin; first compound 2 µM)	relative viability (IPA-3 + Phenformin; first compound 6.325 µM)	relative viability (IPA-3 + Phenformin; first compound 20 µM)	relative viability (Doramapimod + Alpelisib; first compound 0.02 µM)	relative viability (Doramapimod + Alpelisib; first compound 0.06325 µM)	relative viability (Doramapimod + Alpelisib; first compound 0.2 µM)	relative viability (Doramapimod + Alpelisib; first compound 0.6325 µM)	relative viability (Doramapimod + Alpelisib; first compound 2 µM)
NCI-H1666	0.661	0.759	0.737	0.868	0.706	1.06	0.629	0.856	0.791	0.53	0.654	0.552	0.547	1.04	0.469	0.834	1.01	0.882	1.03	1.01
NCI-H1944	0.468	0.41	0.456	0.481	0.412	0.79	0.966	0.924	0.75	0.562	0.212	0.186	0.189	0.219	0.176	0.756	0.829	0.765	0.829	0.71
NCI-H2023	0.233	0.225	0.209	0.216	0.2	0.905	0.77	1.13	0.579	0.727	0.51	0.403	0.496	0.409	0.436	0.498	0.54	0.503	0.617	0.503
NCI-H1755	0.752	0.69	0.651	0.699	0.716	1.06	1.06	1.03	0.974	0.622	0.675	0.582	0.622	0.612	0.557	0.907	0.884	0.989	0.98	0.922
NCI-H23	0.285	0.313	0.319	0.329	0.299	1.2	0.87	0.75	0.545	0.409	0.819	0.781	0.855	0.773	0.734	0.711	0.64	0.753	0.867	0.59
ABC-1	1.35	1.02	1.33	0.99	1.26	1.08	1.01	1.2	1.25	0.886	0.258	0.247	0.236	0.258	0.235	1.09	0.839	1.14	1.08	0.954
201T	0.888	0.861	0.839	0.868	0.947	1.02	1.04	1.04	1.06	1.04	0.452	0.454	0.484	0.461	0.469	1.04	1	0.992	1.07	0.982
NCI-H1734	0.59	0.457	0.469	0.44	0.436	1.08	0.854	0.866	0.806	0.485	0.394	0.371	0.371	0.412	0.368	0.603	0.567	0.559	0.629	0.533
NCI-H520	0.528	0.523		0.413	0.453	0.894	0.873	0.776	0.694	0.498	0.817	0.63	0.369	0.512	0.712	0.883	0.822	0.954	0.832	0.807
NCI-H1355	0.385	0.36	0.375	0.349	0.34	1.07	0.969	0.842	0.85	0.596	0.471	0.448	0.476	0.44	0.482	0.739	0.793	0.754	0.868	0.732
NCI-H1915	0.277	0.279	0.248	0.262	0.245	0.968	0.92	0.909	0.715	0.371	0.388	0.36	0.371	0.338	0.389	1.04	1.1	1.12	1.11	1.08
BEN	0.612	0.824	0.758	0.712	0.665	0.726	0.76	0.945	0.831	0.557	0.268	0.291	0.243	0.243	0.388	0.903	0.876	1.05	0.97	0.95
NCI-H3122	0.517	0.467	0.362	0.459	0.474	1.04	1.11	1.07	0.953	0.98	0.442	0.38	0.389	0.31	0.362	0.952	0.831	0.756	0.776	0.863
SK-MES-1	0.455	0.394	0.423	0.296	0.31	0.468	0.449	0.366	0.349	0.269	0.635	0.625	0.667	0.573	0.533	0.87	0.765	0.766	0.869	0.675
HOP-62	0.193	0.213	0.231	0.229	0.235	1.12		0.934	1.05	0.792	0.79	0.582	0.679	0.636	0.645	0.898	1.14	0.896	0.975	0.874
HCC-366	0.399	0.35	0.349	0.335	0.321	1.03	1.08	1.23	1.02	1.05	0.715	0.584	0.636	0.567	0.752	0.403	0.325	0.38	0.39	0.299

Cell Line	relative viability (IPA-3 + Decitabine; first compound 0.2 µM)	relative viability (IPA-3 + Decitabine; first compound 0.6325 µM)	relative viability (IPA-3 + Decitabine; first compound 2 µM)	relative viability (IPA-3 + Decitabine; first compound 6.325 µM)	relative viability (IPA-3 + Decitabine; first compound 20 µM)	relative viability (RAF265 + Lapatinib; first compound 0.01 µM)	relative viability (RAF265 + Lapatinib; first compound 0.03162 µM)	relative viability (RAF265 + Lapatinib; first compound 0.1 µM)	relative viability (RAF265 + Lapatinib; first compound 0.3162 µM)	relative viability (RAF265 + Lapatinib; first compound 1 µM)	relative viability (IPA-3 + Phenformin; first compound 0.2 µM)	relative viability (IPA-3 + Phenformin; first compound 0.6325 µM)	relative viability (IPA-3 + Phenformin; first compound 2 µM)	relative viability (IPA-3 + Phenformin; first compound 6.325 µM)	relative viability (IPA-3 + Phenformin; first compound 20 µM)	relative viability (Doramapimod + Alpelisib; first compound 0.02 µM)	relative viability (Doramapimod + Alpelisib; first compound 0.06325 µM)	relative viability (Doramapimod + Alpelisib; first compound 0.2 µM)	relative viability (Doramapimod + Alpelisib; first compound 0.6325 µM)	relative viability (Doramapimod + Alpelisib; first compound 2 µM)
NCI-H2347	0.629	0.611	0.657	0.622	0.603	1.1	0.915	0.998	0.887	0.435	0.334	0.448	0.33	0.406	0.736	1.09	0.926	1.06	1.05	0.957
A549	0.379	0.278	0.128	0.274	0.179	0.906	0.853	0.987	0.465	0.463	0.197		0.142	0.189	0.298	0.69	0.626	0.675	0.784	0.55
LXF-289	0.368	0.368	0.345	0.37	0.422	0.942	0.953	0.858	0.785	0.743	0.536	0.47	0.544	0.514	0.546	1.03	0.992	1.01	1.02	0.956
NCI-H1793	0.545	0.495	0.566	0.442	0.529	0.652	0.658	0.631	0.296	0.512	0.509	0.317	0.334	0.458	0.545	0.788	0.595	0.786	0.643	0.595
LU99A	0.974	0.813	0.881	0.867	0.879	1.02	0.838	0.61	0.496	0.324	0.883	0.764	0.858	0.933	0.799	0.523	0.484	0.486	0.484	0.441
PC-14	0.29	0.152	0.226	0.187	0.144	0.339	0.331	0.403		0.383	0.614	0.521	0.572	0.497	0.801	1.01	1.06	0.892	0.995	0.89
NCI-H2085	0.58	0.568	0.56	0.502	0.459	0.777	0.709	0.806	0.843	0.717	0.82	0.651	0.744	0.678	0.585	1.03	0.928	0.839	0.913	0.93
NCI-H2170	0.462	0.421	0.424	0.445	0.439	0.278	0.306	0.284	0.296	0.287	0.438	0.358	0.457	0.356	0.481	0.802	0.823	0.769	0.915	0.741
HCC-78	0.74	0.665	0.618	0.548	0.649	0.902	0.702	1.24	0.938	0.209	0.768	0.64	0.728	0.801	0.692	0.288	0.327	0.325	0.343	0.285
NCI-H1395	0.688	0.666	0.728	0.687	0.714	1.41	0.943	0.957	0.942	0.912	0.46	0.431	0.446	0.479	0.469	1.07	1.08	0.93	1.14	0.938
NCI-H2126	0.556	0.624	0.595	0.587	0.622	0.765	0.732	0.718	0.756	0.662	0.57	0.517	0.506	0.516	0.629	0.743	0.733	0.733	0.742	0.662
H3255	0.634	0.571	0.577	0.548	0.632	0.254	0.248	0.26		0.17	0.443	0.368	0.343	0.386	0.408	0.785	0.659	0.705	0.83	0.621
HCC-15	0.754	0.572	0.612	0.61	0.629	0.832	0.893	0.847	0.657	0.638	0.634	0.343	0.469	0.477	0.583	0.854	0.801	0.884	0.906	0.775
NCI-H661	0.664	0.548	0.528	0.543	0.528	0.539	0.466	0.532	0.442	0.308	0.31	0.266	0.293	0.259	0.272	0.593	0.732	0.618	1.04	0.515
NCI-H2009	0.38	0.353	0.444	0.395	0.312	1.01	0.941	0.85	0.885	0.691	0.539	0.477	0.495	0.445	0.387	1.23	1.22	1.22	1.13	1.13
HCC-44	0.951	0.943	0.879	0.924	0.846	0.994	0.895	0.993	1.04	0.968	0.232	0.245	0.176	0.234	0.184	0.811	0.764	0.756	0.76	0.701
